Among the data in BindingDB's records for doi:10.1021/jm0003945 (Vrije Universiteit, 2001) are Ki values, retold here.

The assay deals with T1, Adenosine receptor A2b (Homo sapiens, UniProt P29275).
T1 sequence (P29275 whole entry): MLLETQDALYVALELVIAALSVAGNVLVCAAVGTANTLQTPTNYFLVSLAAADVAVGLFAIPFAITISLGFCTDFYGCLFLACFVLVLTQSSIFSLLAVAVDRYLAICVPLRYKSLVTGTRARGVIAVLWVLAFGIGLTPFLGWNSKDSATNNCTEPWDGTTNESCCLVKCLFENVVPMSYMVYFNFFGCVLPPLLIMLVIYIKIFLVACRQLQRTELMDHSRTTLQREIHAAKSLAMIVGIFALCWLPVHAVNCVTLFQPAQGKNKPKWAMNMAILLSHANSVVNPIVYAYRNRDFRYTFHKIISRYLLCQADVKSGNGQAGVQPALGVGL
The assay can be described thus: Percent displacement of [3H]DPCPX binding in human adenosine A2B receptor expressed in COS-7 cells.

As a reminder, the Ki is the dissociation constant of the complex between target and ligand, obtained from inhibition or displacement. The low end stands for higher affinity, the high end for lower affinity.

Take `COc1ccccc1NC(=O)Nc1nc(-c2cccnc2)nc2ccccc12` [VUF-5574]: the Ki stood at 10 µM.
